Data: patent US20110250254A1, “ANTIMICROBIAL COMPOSITIONS AND USES” (priority 2008, published 2011)
Where two headings read alike, the source gives them in different places.

Tests used:
Format in all cases: cell-based
S. epidermidis [1] = test: Planktonic growth in Low Binding Plates, OD 600 nm
Procedure: (§1) Planktonic growth was determined in “Low Binding Plates” in which the bacteria form minimal amounts of biofilm The quantity is determined by optical density measurements at 600 nm.

V. harveyi [2] = test: Biofilm formation on peggs, Calgary method; settings: for Effect on V. harveyi biofilm: in words
Procedure: (§2) Biofilm formation was measured in static cultures in wells of microtiter plates for S. epidermidis, or on “peggs” according to the Calgary method (The Calgary biofilm devices: New technology for rapid determination of antibiotic susceptibilities of bacterial biofilms. Ceri et al. J Clin Microbiol 1999:37:1771-1776) for V. harveyi. In both cases the safranin staining method was applied and optical density was measured at 530 nm for quantification of biofilm mass.

S. epidermidis [3] = test: Biofilm formation in static cultures in wells of microtiter plates
Procedure: as §2

S. epidermidis [4] = test: Static biofilm model on coated glass vials; settings: incubation time 5 h, coating on glass vial
Procedure: The materials of Example 3 were tested in a static biofilm model as follows.
Triplicate samples of a coating composition were applied to a glass vial in accordance with Table 2 set out below where each vial is given a number. Vials 1 to 12 are each loaded with 13 mg of the indicated material, followed by the addition of 1.0 mL dichloromethane. The dichloromethane was slowly evaporated under atmospheric pressure to leave a coating on the internal walls of the receptacles. Vials 13 to 18 were each loaded by adding 10 mg of the indicated material pre-dissolved in 10 mL dichloromethane. These vials were heated in an oven at 125° C. for 24 hours. To remove any residues of the dichloromethane solvent, all vials were dried at high vacuum (0.5 mmHg) for 2 hours at room temperature.
The biofilm was assessed as described in Example 2.
It is possible in the example of the copolymer of C and D that bacteria are killed in addition to the inhibition of biofilm formation. Similar results were obtained in a static biofilm model where S. epidermis bacteria were incubated over a time period of 5 hours.

V. harveyi [5] = test: Planktonic growth in Low Binding Plates, OD 600 nm; settings: for V. harveyi planktonic bacteria reduction: 100 μM; for Effect on V. harveyi planktonic growth: in words
Procedure: as §1

[6] = tested on: Vibrio harveyi BB886 (AI-1 reporter); test: Bioluminescence assay of AI-1 quorum-sensing; settings: compared with the corresponding furanone compound
Procedure: (§3) The effect of (Z)-5-(bromomethylene) thiophen-2(5H)-one on AI-1 and AI-2 quorum-sensing by bacteria was tested in a bioluminescence assay as follows:
(§4) Inhibition of quorum sensing was assessed as the ability of the furanone to reduce bioluminescence induced by cell free bacterial culture supernatant containing either AI-1 or AI-2 signal molecules. Vibrio harveyi BB886 was used as an AI-1 reporter and Vibrio harveyi BB170 was used as reporter of AI-2 communication.

[7] = tested on: Vibrio harveyi BB170 (AI-2 reporter); test: Bioluminescence assay of AI-2 quorum-sensing; settings: compared with the corresponding furanone compound
Procedure: as §3, §4

V. harveyi [8] = test: Static biofilm model, safranine staining; settings: 4 h incubation
Procedure: (§5) According to the static biofilm model, a given thiophenone 200 μmol/L was dissolved in 500 μl absolute ethanol and applied to wells of a standard 24 well microtiter plate. The ethanol was evaporated from the wells in a laminar air sterile work bench at room temperature so as to leave a coating of the thiophenone in the well. A sample of bacteria was then added to the well and incubated for a given period of time. After incubation, the percentage of bacteria remaining was assessed by safranine staining of the biofilm. Bound safranine was released by acetic acid and optical density was measured in Synergy HT Multi-Detection Microplate Reader and compared to a control.

Pseudoalteromonas = test: Static biofilm model, safranine staining; settings: 4 h incubation
Procedure: as §5

S. epidermidis [9] = test: Static biofilm model, safranine staining; settings: 6 h incubation, thiophenone 200 μmol/L coating
Procedure: as §5

E. faecalis = test: Static biofilm model, safranine staining; settings: 4 h incubation
Procedure: as §5

V. harveyi [10] = test: Shaking biofilm model (200 rpm), safranine staining
Procedure: as §5
(§6) According to the shaking biofilm model, the microtiter plates were shaken (200 rpm) in a Minitron Incubator Shaker during biofilm formation.

S. epidermidis [11] = test: as above; settings: Staphylococcus epidermidis, S. epidermidis, read-out: Shaking biofilm model % Remaining
Procedure: as §5, §6

marine bacteria [12] = test: Coated stainless steel, total counts of desorbed bacteria by epifluorescence microscopy; settings: 14 days at 20° C., median values vs no coating
Procedure: (§7) Biological testing of coated stainless steel substrates were performed in a static cultures of marine bacteria. The biofilm prevention efficiencies of the coatings were recorded as a) total enumeration of bacteria attached on the steel surfaces and b) most-probable number (MPN) viability testing of attached bacteria. The nature of the thiophenes (expecting to inhibit biofilm generation without being toxic to the bacteria) should account for inhibition of both total counts and viability counts when thiophene-coated surfaces were compared to non-treated controls.
(§8) Three samples of stainless steel substrates were prepared as described above, each of these in triplicate. […]
(§9) At the end of the experimental period (14 days) the steel surfaces were removed from the media and carefully washed in sterile and particle-free (filtered through […] sterile filters) seawater. […] Desorbed concentrations of bacteria were recorded by epifluorescence microscopy and by MPN-counts in MB medium.
(§10) For epifluorescence microscopy 10 ml desorbed samples were stained with 2 μg 3′5-diamino phenylindol (DAPI) and incubated for 5-10 minutes. The stained samples were filtered through 0.2 μm black polycarbonate filters and analysed in a fluorescence microscope at 1250× magnification. […] The plates were incubated at 20° C. for 5 days and positive growth recorded as turbidity in the wells. […]

marine bacteria [13] = test: Coated stainless steel, MPN viable counts of desorbed bacteria; settings: 14 days at 20° C., median values vs no coating
Procedure: as §7, §8, §9, §10

## O=C1C=C/C(=C/I)S1
S. epidermidis [1]; 50 μM
  S. epidermis planktonic bacterial growth reduction: 50%
S. epidermidis [1]; 100 μM
  S. epidermis planktonic bacterial growth reduction: 63%
V. harveyi [2]; 5 μM
  V. harveyi biofilm reduction: 46%
V. harveyi [2]; 10 μM
  V. harveyi biofilm reduction: 80%
V. harveyi [2]; 15 μM
  V. harveyi biofilm reduction: 95%
S. epidermidis [3]; 50 μM
  S. epidermis biofilm reduction: 50%
S. epidermidis [3]; 100 μM
  S. epidermis biofilm reduction: 64%

## CCO[Si](CCCNC(=O)OCc1ccccc1)(OCC)OCC [Benzyl 3-(triethoxysilyl)propylcarbamate, reference compound]
S. epidermidis [4]
  Static biofilm model % Remaining: 100%

## O=C(O)CCC(=O)OCC1=C/C(=C/Br)SC1=O
V. harveyi [5]
  V. harveyi planktonic bacteria reduction: 18%
V. harveyi [2]; 5 μM
  V. harveyi biofilm reduction: 17%
V. harveyi [2]; 50 μM
  V. harveyi biofilm reduction: 70%
V. harveyi [2]; 100 μM
  V. harveyi biofilm reduction: 85%

## O=C1C=C/C(=C/Oc2ccc([N+](=O)[O-])cc2)S1
S. epidermidis [1]; in words
  Effect on S. epidermis planktonic growth: No effect
S. epidermidis [3]; in words
  Effect on S. epidermis biofilm: No effect

## CCN(/C=C1/C=CC(=O)S1)CC
V. harveyi [5]
  Effect on V. harveyi planktonic growth: No effect
V. harveyi [2]
  Effect on V. harveyi biofilm: No effect

## N#CS/C=C1/C=CC(=O)S1
V. harveyi [5]; 25 μM
  V. harveyi planktonic reduction: 50%
S. epidermidis [1]; concentrations from 25 μM
  S. epidermis planktonic growth reduction: 70%
V. harveyi [2]; 25 μM
  V. harveyi biofilm reduction: 90%

## O=C1C=C/C(=C/Br)S1 [Thio101, (Z)-5-(bromomethylene) thiophen-2(5H)-one]
[6]
  Inhibition of AI-1 quorum-sensing: considerably more effective
[7]
  Inhibition of AI-2 quorum-sensing: considerably more effective
V. harveyi [8]; coating
  Static biofilm model % Remaining: 20%
V. harveyi [8]; in medium
  Static biofilm model % Remaining: 9%
Pseudoalteromonas; coating
  Static biofilm model % Remaining: 52%
Pseudoalteromonas; in medium
  Static biofilm model % Remaining: 36%
S. epidermidis [9]
  Static biofilm model % Remaining: 28%
E. faecalis; coating
  Static biofilm model % Remaining: 66%
E. faecalis; in medium
  Static biofilm model % Remaining: 32%
V. harveyi [10]; 8 h incubation
  Shaking biofilm model % Remaining: 54%
V. harveyi [10]; 18 h incubation
  Shaking biofilm model % Remaining: 56%
S. epidermidis [11]; 6 h incubation
  activity at 200 µM: 13%
S. epidermidis [11]; 20 h incubation
  activity at 200 µM: 15%

## CCO[Si](CCCNC(=O)OCC1=C/C(=C/Br)SC1=O)(OCC)OCC [Compound F, (Z)-(5-bromomethylene-2-oxo-2,5-dihydrothiopen-3-yl)methyl 3-(triethoxysilyl)propylcarbamate]
Marine bacteria [12]
  Inhibition of biofilm attachment (total counts): ~80%
Marine bacteria [13]
  Inhibition of viable attached bacteria: > 99%
S. epidermidis [4]
  Static biofilm model % Remaining: 45%

## O=C1S/C(=C\Br)C=C1c1cccs1 [(Z)-5-(bromomethylene)-3-(thiophen-2-yl)thiophen-2(5H)-one]
V. harveyi [5]
  V. harveyi planktonic bacteria reduction: 30%

## COc1ccc(C2CSC(=O)C2)s1 (centres unmarked)
V. harveyi [5]
  Effect on V. harveyi planktonic growth: No effect
V. harveyi [2]
  Effect on V. harveyi biofilm: No effect
